Laboratory results: article PMC12276035, “Novel Para‐Phenylenediamine‐Based Derivatives as Receptor Tyrosine Kinase‐like Orphan Receptor 1 (ROR1) Inhibitors: An In Vitro Preliminary Characterization” (Chemmedchem, 2025)
Read-outs that look alike come from different tables or passages of the source.

Tests used:
ROR1 kinase domain = molecular target: T1, ROR1 kinase domain (Homo sapiens, UniProt Q01973); experiment: SPR assay on ROR1 kinase domain; assay type: binding
T1 construct: recombinant human ROR1 protein (aa 453‐783, His&GST Tag); His; GST; purchased Elabscience
T1 sequence (Q01973 453-783): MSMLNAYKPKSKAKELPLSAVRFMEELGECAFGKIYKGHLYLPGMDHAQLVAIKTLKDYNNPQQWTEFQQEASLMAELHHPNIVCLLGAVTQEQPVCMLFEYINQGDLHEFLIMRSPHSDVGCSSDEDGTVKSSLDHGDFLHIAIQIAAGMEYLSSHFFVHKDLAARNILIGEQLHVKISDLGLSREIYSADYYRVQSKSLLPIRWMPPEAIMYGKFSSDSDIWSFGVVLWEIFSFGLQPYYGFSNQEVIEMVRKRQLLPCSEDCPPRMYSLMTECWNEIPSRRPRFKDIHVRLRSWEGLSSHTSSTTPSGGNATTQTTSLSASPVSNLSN
Procedure: We performed molecular docking experiments to explore the binding mode of novel derivatives using the crystallographic structure of the protein co‐complexed with ponatinib, a known inhibitor of ROR1 (PDB code: 6TU9).^[ [30] ^] […] To evaluate the affinity of the synthesized molecules (10, 13, 14, 17–21, 26–29) for the protein counterpart, SPR assay was performed against kinase domain ROR1. Protein immobilization was achieved using the amide coupling method, and the molecules were tested at 10 different concentrations, ranging from 0 to 100 μM. Ponatinib was used as a positive control^[ [30] ^] (Table 1 ).
SPR spectroscopy analyses were conducted to evaluate the binding affinity of the synthesized compounds against ROR1 receptor using a Biacore T200 optical biosensor equipped with research‐grade CM5 sensor chips (Cytiva, Marlborough, USA). ROR1 kinase domain was immobilized on the CM5 sensor chip surface following standard amine‐coupling protocols. Specifically, kinasic domain was immobilized at pH 4.5 10 mM CH3COONa using a flow rate of 10 μL min^−1, achieving a density of around 20 kRU.
For the experiments, surfaces of ROR1, along with an unmodified reference surface, were prepared for simultaneous analyses. […] The compounds were injected in a series of concentrations (1:2 dilution, 10 different concentrations), spanning from 0 to 100 μM. The concentration series were prepared in 96‐well plates. SPR experiments were conducted at 25 °C, with a flow rate of 20 μL min^−1, allowing for 90 s of association monitoring and 400 s of dissociation monitoring. Changes in mass, reflective of the binding response, were recorded as resonance units (RU). K D values were determined using the Biaevaluation software performing a global fit of the double‐referenced association and dissociation data to a 1:1 interaction model^[ [43] ^] (see Figure S38, Supporting Information).

SH‐SY5Y cells = experiment: MTT cell viability assay, SH‐SY5Y; assay type: cell-based; settings: Homo sapiens, cytotoxicity, treated for 72 h, read-out: EC50 ± SD SH‐SY5Y
Procedure: (§1) Cytotoxicity studies, assessing the activity of the synthetized compounds, were performed only on the molecules showing the best binding profile in the SPR assay. MTT test was performed on two cell lines known for overexpressing ROR1, particularly MTT assays were conducted on JeKo‐1 (human mantle cell lymphoma) and SH‐SY5Y (neuroblastoma), exposing them to different concentrations of compounds for 72 h (Table 2 ). […] This increased effectiveness is likely due to the high expression of the target protein in leukemia and other hematologic malignancies. […] A key structural difference in 18 and 19 compared to active compounds is the absence of the trifluoromethyl group on the aromatic ring. Indeed, the removal of the trifluoromethyl group (18) or the incorporation of an electron‐donating substituent (19) alters the interaction with the ATP‐binding pocket.
The neuroblastoma SH‐SY5Y cells, a human neuroblastoma cell line of neural crest origin, were obtained from ATCC and were grown in DMEM supplemented with 10% v/v fetal bovine serum, 2 mM L‐glutamine, 100 U mL^−1 penicillin, and 0.1 mg mL^−1 streptomycin.
(§2) Cell viability was established by measuring mitochondrial metabolic activity with MTT. In brief, SH‐SY5Y (20 × 10^3 cells/well) and JeKo‐1 (10 × 10^3 cells/well) were plated into 96‐well plates for 24 h, then the compounds (1.56–50 μM) were added. […], cells were replaced with a fresh medium containing 0.5 mg mL^−1 MTT.^[ [45] ^] Cells were incubated for 1–3 h at 37 °C, then the medium was discarded, and formazan blue crystals in the cells dissolved with 100 μL per well of a solution containing isopropanol/HCl 0.1 M. The absorbance was measured at 570 nm using a microplate reader (Multiskan Go, Thermo Scientific, Waltham, MA, USA). Cell viability was expressed as a percentage relative to the untreated cells cultured in medium with 0.1% DMSO and set to 100%, whereas 10% DMSO was used as positive control and set to 0% of viability. The EC50 values were calculated using GraphPad Prism 8.0 software by nonlinear regression of dose‐response inhibition.

JeKo‐1 cells [1] = experiment: MTT cell viability assay, JeKo‐1; assay type: cell-based; settings: Homo sapiens, cytotoxicity, treated for 72 h, read-out: EC50 ± SD JeKo‐1
Procedure: as §1
The JeKo‐1 mantle cell lymphoma (MCL) cell line, derived from mantle cell lymphoma of B‐cell lineage, was obtained from ATCC and was grown in RPMI supplemented with 10% v/v fetal bovine serum, 2 mM L‐glutamine, 100 U mL^−1 penicillin, and 0.1 mg mL^−1 streptomycin.
as §2

JeKo‐1 cells [2] = experiment: Annexin V‐FITC/PI staining apoptosis, flow cytometry; assay type: cell-based, human; settings: JeKo‐1, 20 μM, 72 h, early and late apoptosis
Excerpt: This observation aligns with previous studies reporting that ROR1 is highly expressed in B‐cell malignancies, including mantle cell lymphoma, where it plays a crucial role in survival signaling and resistance to apoptosis.^[ [10], [32] ^] Given the higher susceptibility of JeKo‐1 cells to the inhibitor, we selected this model for further apoptotic analysis. However, for completeness, apoptotic data for the SH‐SY5Y cell line are also provided in the Supporting Information (Figure S39, Supporting Information). Specifically, cells were incubated with compounds 17, 20, or 29 (20 μM) for 72 h and a flow cytometry analysis using Annexin V/PI staining was performed. After treatment, a very strong increase in the apoptotic response was observed, in both early and late apoptotic populations compared to the negative control (Figure 4 ). […] These findings are in accordance with the literature and further support the potential of ROR1 inhibition in promoting cell death in mantle cell lymphoma.^[ [33] ^]
Figure 4 Proapoptotic activity of compounds 17, 20, and 29 (20 μM) on JeKo‐1 cells treated for 72 h. A) Representative flow cytometry plots using Annexin V‐FITC/PI staining for apoptosis. B) Related quantitative analysis is reported. Data are expressed as a percentage of live, apoptotic, and necrotic cells. Results are shown as mean ± standard deviation (SD) from three independent experiments. *** denote p < 0.001 versus Ctrl.
Apoptosis of the cells was assessed using annexin V‐FITC/PI reagents. JeKo‐1 cells (60 × 10^3 cells/well) were seeded into 24‐well plates and incubated for 72 h with compounds (20 and 10 μM). After treatment, the collected cells were resuspended in a 100 μL assay buffer, then 5 Annexin V‐FITC and 1 PI reagents were added following incubation for 20 min at room temperature according to the manufacturer's protocol (Dead Cell Apoptosis Kits with Annexin V for Flow Cytometry, Thermo Fisher Scientific). Cells were analyzed with a Becton Dickinson FACScan flow cytometer using the Cell Quest software, version 4 (Franklin Lakes, NJ, USA).^[ [46] ^]

[3] = SPR, KD ± SD, 0 to 100 μM, 25 °C, n.b. = no binding, read-out: Kinase domain KD
[4] = SPR, KD ± SD, 0 to 100 μM, 25 °C, n.b. = no binding

| SMILES | Kd (ROR1 kinase domain; [3]) [µM] | Kinase domain KD (ROR1 kinase domain; [4]) | EC50 (SH‐SY5Y cells) [µM] | EC50 (JeKo‐1 cells [1]) [µM] | other results |
| --- | --- | --- | --- | --- | --- |
| COc1cc(NCC2CCNCC2)ccc1NC(=O)NCc1ccc(-c2ccccc2)cc1 [Compound 19] | 15 ± 2.47 | – | > 50 | > 50 | – |
| Cc1ccc(C(=O)Nc2ccc(CN3CCN(C)CC3)c(C(F)(F)F)c2)cc1C#Cc1cnc2cccnn12 [Ponatinib, 3‐(2‐imidazo[1,2‐b]pyridazin‐3‐ylethynyl)‐4‐methyl‐N‐[4‐[(4‐methylpiperazin‐1‐yl)methyl]‐3‐(trifluoromethyl)phenyl]benzamide, reference compound] | – | – | 4.25 ± 3.92 | 1.69 ± 1.03 | Kd (ROR1 kinase domain): 2.9 ± 0.85 µM |
| O=C(NCc1ccc(-c2ccccc2)cc1)Nc1ccc(NCC2CCNCC2)cc1 [Compound 18] | 18.4 ± 3.14 | – | > 50 | > 50 | – |
| O=C(Nc1ccc(NCC2CCNCC2)cc1C(F)(F)F)c1ccc(-c2ccccc2)cc1 [Compound 28] | – | n.b. | – | – | – |
| N#CCCNc1ccc(NC(=O)NCc2ccc(C(F)(F)F)cc2)cc1 [Compound 14] | – | n.b. | – | – | – |

Now from value to compound, other results behind:

| Kd (ROR1 kinase domain; [3]) [µM] | Kinase domain KD (ROR1 kinase domain; [4]) | SMILES | EC50 (SH‐SY5Y cells) [µM] | EC50 (JeKo‐1 cells [1]) [µM] | other results |
| --- | --- | --- | --- | --- | --- |
| – | n.b. | O=S(=O)(Nc1ccc(NCC2CCNCC2)cc1C(F)(F)F)c1ccc(-c2ccccc2)cc1 [Compound 27] | – | – | – |
| 13.4 ± 1.92 | – | O=C(NCc1ccc(-c2ccccc2)cc1)Nc1ccc(NC2CCNCC2)cc1C(F)(F)F [Compound 29] | 18.5 ± 2.65 | 13.9 ± 2.75 | apoptotic cells (JeKo‐1 cells [2]): 73.15 ± 2.76% |
| – | n.b. | O=C(NCc1ccc(-c2ccccc2)cc1)Nc1ccc(NCc2ccncc2)cc1C(F)(F)F [Compound 13] | – | – | – |
| – | n.b. | N#CCCNc1ccc(NC(=O)NCc2ccc(-c3ccccc3)cc2)c(C(F)(F)F)c1 [Compound 10] | – | – | – |
| 16.7 ± 2.86 | – | NCCCNc1ccc(NC(=O)NCc2ccc(-c3ccccc3)cc2)c(C(F)(F)F)c1 [Compound 20] | 14.2 ± 4.81 | 11.3 ± 3.15 | apoptotic cells (JeKo‐1 cells [2]): 94.50 ± 3.12% |
| – | n.b. | Nc1ccc(CNc2ccc(NS(=O)(=O)c3ccc(-c4ccccc4)cc3)c(C(F)(F)F)c2)cc1 [Compound 26] | – | – | – |
| – | n.b. | Nc1ccc(CNc2ccc(NC(=O)NCc3ccc(-c4ccccc4)cc3)c(C(F)(F)F)c2)cc1 [Compound 21] | – | – | – |
